Test results from patent publication US10508109B2 (priority 2015, dated 2019).
pIC50: −log10 of the molar value. Like-named read-outs stand apart in the source and are kept apart here.

What was measured:
SUV39H2 = SUV39H2 (Homo sapiens (Human), UniProt Q9H5I1); assay: biochemical; type: biochemical; conditions: 3H-SAM 100 nM, H3 Histone Peptide 350 nM, room temperature 3 hours
Protocol: Assay buffer (4 μL) was added into all the wells, including test compound and control wells (except for Sinefungin control wells), using the Multidrop Combi. The plate was centrifuged at 1000 rpm for 1 min. […] SUV39H2 (8 μL, final conc: optimized for each lot of the enzyme based on specific activity) was added by using the Multidrop Combi. The assay plate was centrifuged at 1000 rpm for 1 min. Assay buffer was used as background control, and incubated at room temperature for 3 hours. The reaction was stopped with 20 μL of 2.5 mg/mL Streptavidin SPA beads (final conc. 50 μg/well) in buffer using the Multidrop Combi and centrifuged for 1 min. The plate was loaded into the Trilux-Microbeta counter and a delayed read of 10 hours was made. The radioactive signal was measured at 1 min/well. Sinefungin and the internal standard compound were used as tool compounds to determine assay performance.
• The following calculations were made using the obtained CPM raw data: Software used: XLFit from IDBS.
For each test plate the following results were calculated: • Average, Standard Deviation, and % CV of Background Controls • Average, Standard Deviation, and % CV of Positive Controls • Z′ value of the plate • IC50 values of standard and test compounds (in nM) • R^2 value of fitted concentration response curve • Hill slope coefficient of fitted concentration response curve • Signal to Noise Ratio

A549 = assay: Cell-based assay, anti-proliferative activity (Cell Counting Kit-8, 72 hours); conditions: Homo sapiens, read-out: A549 IC50
In short: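 Seed cells in 96-well format; add inhibitors; measure growth by CCK-8 at end of exposure; derive IC50.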

[1] = A549 cells, 72 hours exposure, Cell Counting Kit-8

Sequence of SUV39H2 (Q9H5I1 whole entry): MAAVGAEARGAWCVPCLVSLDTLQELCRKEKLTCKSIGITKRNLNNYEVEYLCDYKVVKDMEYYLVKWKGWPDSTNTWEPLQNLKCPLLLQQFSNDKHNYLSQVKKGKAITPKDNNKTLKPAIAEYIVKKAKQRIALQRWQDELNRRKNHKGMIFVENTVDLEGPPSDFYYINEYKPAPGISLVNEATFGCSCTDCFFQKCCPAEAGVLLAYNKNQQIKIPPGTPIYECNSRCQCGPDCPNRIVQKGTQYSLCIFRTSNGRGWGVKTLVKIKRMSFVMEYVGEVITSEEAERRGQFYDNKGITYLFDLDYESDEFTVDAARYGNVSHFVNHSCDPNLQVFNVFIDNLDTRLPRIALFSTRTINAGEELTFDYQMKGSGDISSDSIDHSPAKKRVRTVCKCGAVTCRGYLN

Row | SMILES | pIC50 (SUV39H2) | pIC50 (A549; [1]) | pIC50 (A549; A549, 72 h)
1 | COc1cc(OC)c(-c2cn3ccc(N[C@H]4CC[C@@H](NCc5ccccc5)CC4)cc3n2)cc1Cl [Example 325, cis-N^1-benzyl-N^4-(2-(5-chloro-2,4-dimethoxyphenyl)imidazo[1,2-a]pyridin-7-yl)cyclohexane-1,4-diamine] | 7.63 | 6.10 | 
2 | COc1cc(OC)c(-c2cn3ccc(N[C@H]4CC[C@@H](NCc5ccc(F)cc5)CC4)cc3n2)cc1Cl [Example 326, cis-N^1-(2-(5-chloro-2,4-dimethoxyphenyl)imidazo[1,2-a]pyridin-7-yl)-N^4-(4-fluorobenzyl)cyclohexane-1,4-diamine] | 7.69 | 6.18 | 
3 | COc1cc(OC)c(-c2cn3ccc(N4CCN(c5cc(C)ccn5)CC4)cc3n2)cc1Cl [Example 327, 2-(5-chloro-2,4-dimethoxyphenyl)-7-(4-(4-methylpyridin-2-yl)piperazin-1-yl)imidazo[1,2-a]pyridine] | 7.33 |  | 6.06
4 | COc1cc(OC)c(-c2cn3ccc(N[C@H]4CC[C@H](NCc5ccc(C)cc5)CC4)cc3n2)cc1Cl [Example 328, (1r,4r)-N^1-(2-(5-chloro-2,4-dimethoxyphenyl)imidazo[1,2-a]pyridin-7-yl)-N^4-(4-methylbenzyl)cyclohexane-1,4-diamine (2,2,2-trifluoroacetate)] | 7.22 | 6.44 | 
5 | COc1cc(OC)c(-c2cn3ccc(N[C@H]4CC[C@@H](NCc5ccc(C)cc5)CC4)cc3n2)cc1Cl [Example 329, cis-N^1-(2-(5-chloro-2,4-dimethoxyphenyl)imidazo[1,2-a]pyridin-7-yl)-N^4-(4-methylbenzyl)cyclohexane-1,4-diamine] | 7.41 | 6.11 | 
6 | COc1cc(OC)c(-c2cn3ccc(N4CCN(c5ccnc(C#N)c5)CC4)cc3n2)cc1Cl [Example 330, 4-(4-(2-(5-chloro-2,4-dimethoxyphenyl)imidazo[1,2-a]pyridin-7-yl)piperazin-1-yl)picolinonitrile] | 7.01 | 6.25 | 
7 | COc1cc(OC)c(-c2cn3ccc(N4CCN(c5ccnc(NC6CC6)n5)CC4)cc3n2)cc1Cl [Example 331, 4-(4-(2-(5-chloro-2,4-dimethoxyphenyl)imidazo[1,2-a]pyridin-7-yl)piperazin-1-yl)-N-cyclopropylpyrimidin-2-amine] | 7.24 | 6.09 | 
8 | COc1cc(OC)c(-c2cn3ccc(N4CCN(c5ccnc(N6CCC(O)CC6)n5)CC4)cc3n2)cc1Cl [Example 332, 1-(4-(4-(2-(5-chloro-2,4-dimethoxyphenyl)imidazo[1,2-a]pyridin-7-yl)piperazin-1-yl)pyrimidin-2-yl)piperidin-4-ol] | 7.67 |  | 6.04
9 | COc1cc(OC)c(-c2cn3ccc(N4CCN(c5cnc(N6CCCC6)nc5)CC4)cc3n2)cc1Cl [Example 333, 2-(5-chloro-2,4-dimethoxyphenyl)-7-(4-(2-(pyrrolidin-1-yl)pyrimidin-5-yl)piperazin-1-yl)imidazo[1,2-a]pyridine] | 7.21 | 6.14 | 
10 | COc1cc(OC)c(-c2cn3ccc(N4CCN(c5cnc(N6CCOCC6)nc5)CC4)cc3n2)cc1Cl [Example 335, 4-(5-(4-(2-(5-chloro-2,4-dimethoxyphenyl)imidazo[1,2-a]pyridin-7-yl)piperazin-1-yl)pyrimidin-2-yl)morpholine] | 7.16 | 6.16 | 
11 | COc1cc(OC)c(-c2cn3ccc(N4CCN(Cc5ccncc5F)CC4)cc3n2)cc1Cl [Example 336, 2-(5-chloro-2,4-dimethoxyphenyl)-7-(4-((3-fluoropyridin-4-yl)methyl)piperazin-1-yl)imidazo[1,2-a]pyridine] | 7.79 | 6.01 | 
12 | COc1cc(OC)c(-c2cn3ccc(N[C@H]4CC[C@H](Nc5cncnc5)CC4)cc3n2)cc1Cl [Example 337, (1r,4r)-N^1-(2-(5-chloro-2,4-dimethoxyphenyl)imidazo[1,2-a]pyridin-7-yl)-N^4-(pyrimidin-5-yl)cyclohexane-1,4-diamine] | 7.10 | 6.08 | 
